Consider 2 compounds from article PMC7600006, “Dissecting the Cytochrome P450 OleP Substrate Specificity: Evidence for a Preferential Substrate” (Biomolecules, 2020).

Experiment [1] has as its target T1, cytochrome P450 OleP (Streptomyces antibioticus, UniProt Q59819).
T1 construct: wild type enzyme
T1 sequence (Q59819 1-407): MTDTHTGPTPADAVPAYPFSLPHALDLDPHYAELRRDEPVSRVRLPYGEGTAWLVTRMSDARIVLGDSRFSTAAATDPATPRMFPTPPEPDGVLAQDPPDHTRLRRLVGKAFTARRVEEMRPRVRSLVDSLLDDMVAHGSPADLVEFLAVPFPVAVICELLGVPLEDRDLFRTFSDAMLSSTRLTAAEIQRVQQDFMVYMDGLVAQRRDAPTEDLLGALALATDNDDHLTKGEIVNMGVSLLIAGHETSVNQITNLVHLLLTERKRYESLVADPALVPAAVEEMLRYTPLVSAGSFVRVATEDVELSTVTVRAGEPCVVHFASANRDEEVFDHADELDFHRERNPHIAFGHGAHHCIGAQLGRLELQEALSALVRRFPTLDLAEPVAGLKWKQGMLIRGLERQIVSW
Kind of experiment: UV-visible equilibrium titration (Type I Soret shift); crystal structures 6ZHZ, 6ZI2 and 6ZI7. In kind it is binding.

The target in experiment [2] is T1, cytochrome P450 OleP. Kind of experiment: UV-visible equilibrium titration (Type I Soret shift); crystal structure of the ternary complex with L-rhamnose ([…] Å). In kind it is binding.

As to `C[C@@H]1[C@@H](O)[C@@H](C)C[C@H](C)C(=O)[C@H](C)[C@@H](O)[C@@H](C)[C@@H](C)OC(=O)[C@H](C)[C@H]1O` [DEO, 8.8a-deoxyoleandolide], the Kd (in general, the concentration at which binding is half-saturated) at cytochrome P450 OleP [1] is 23 ± 2 µM. `CC[C@H]1OC(=O)[C@H](C)[C@@H](O)[C@H](C)[C@@H](O)[C@@H](C)C[C@@H](C)C(=O)[C@H](C)[C@@H](O)[C@H]1C` [6DEB, 6-deoxyerythronolide B]: the Kd on cytochrome P450 OleP [2] is 3.2 ± 0.1 µM.
